Drawing on patent US20210251991A1, “SUBSTITUTED 2,2'-BIPYRIMIDINYL COMPOUNDS, ANALOGUES THEREOF, AND METHODS USING SAME” (priority 2018, published 2021), this text covers EC50 for six compounds.

This test deals with HBsAg in HepG2.2.15 cells. Kind of test: HBsAg assay: inhibition of HBsAg in HepG2.2.15 cells (chemiluminescence immunoassay of supernatant). The test is classed as cell-based, hepatitis B virus. Conditions: Hepatitis B virus, HepG2.2.15, 144 h, read-out: sAg EC50, HepG2.2.15 cells, supernatant collected at day 6 after exposure, HBsAg CLIA. The method, boiled down:
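HepG2.2.15 cells treated with serially diluted compounds (0.5% DMSO), medium and compound refreshed after 2-3 days; supernatant HBsAg measured by chemiluminescence immunoassay at day 6. EC50 from dose-response curves; viability assessed in parallel by CellTiter-Glo.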

A word on the EC50: it is the midpoint of the concentration-response curve. As to `CCC1c2ccccc2CCN1c1cnc2c(NC)nccc2c1` (stereo not drawn) [Example 124, 3-(1-Ethyl-3,4-dihydroisoquinolin-2(1H)-yl)-N-methyl-1,7-naphthyridin-8-amine], the EC50 is 22 µM.
The value for `CCC1c2cc(F)c(OC)cc2CCN1c1cnc2c(=O)n(C)cnc2c1` (stereo not drawn) [Example 125, 7-(1-Ethyl-7-fluoro-6-methoxy-3,4-dihydroisoquinolin-2(1H)-yl)-3-methylpyrido[3,2-d]pyrimidin-4(3H)-one] was 1.6 µM; that for `CCC1c2ccc(F)c(F)c2OCCN1c1ccnc(-c2ncccn2)n1` (stereo not drawn) [Example 126, 5-Ethyl-8,9-difluoro-4-(2-pyrimidin-2-ylpyrimidin-4-yl)-3,5-dihydro-2H-1,4-benzoxazepine] was 28 µM; that for `CCC1c2cc(F)c(OC)cc2CCN1c1ccnc(-c2ncccn2)n1` (stereo not drawn) [Example 127, 2-(2,2′-Bipyrimidin-4-yl)-1-ethyl-7-fluoro-6-methoxy-1,2,3,4-tetrahydroisoquinoline] was 0.02 µM.
Take `CCC1c2cc(F)c(OC)cc2CCN1c1cnc(-c2ncccn2)nc1` (stereo not drawn) [Example 132, 2-(2,2′-Bipyrimidin-5-yl)-1-ethyl-7-fluoro-6-methoxy-1,2,3,4-tetrahydroisoquinoline]: the EC50 is 0.007 µM.
Take `CCC1c2cc(F)c(OC)cc2CCCN1c1ccnc(-c2ncccn2)n1` (stereo not drawn) [Example 135, 2-([2,2′-Bipyrimidin]-4-yl)-1-ethyl-8-fluoro-7-methoxy-2,3,4,5-tetrahydro-1H-benzo[c]azepine]: the half-maximal effective concentration (EC50) is 1 µM.
